Data on nine compounds can be found in ChEMBL document CHEMBL1201862, “PubChem BioAssay data set” (2004).

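A five-concentration, 48-hour dose response in 96-well plates underlies each endpoint, interpolated linearly between surrounding concentrations. GI50 = concentration required for 50% inhibition of growth.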 Calls of active or inactive are those of the source. Cut-off read from the data, not from the text of the source: active = GI50 up to about 1.1 µM and inactive = higher.

Some test systems named below: COLO 205; HCT-15; IGROV-1; K562; M14; Malme-3M; NCI-H23; NCI-H522; OVCAR-4; OVCAR-5; SF-268; SK-MEL-28; SK-OV-3; U-251; UO-31; HCT-116; RXF 393.
Holding throughout (experiment): NCI-60 cell line screen, 48 h

As for `CC1SC2=NC3=C(c4ccccc4C3=O)C(c3ccc(Br)cc3)N2C1=O` (centres undefined), the GI50 was 90.2 µM (inactive) in the assay on COLO 205; 52.2 µM in the assay on HCT-15; > 100 µM (inactive) with IGROV-1; 44.6 µM (inactive) in the assay with K562; 96.4 µM (inactive) with M14; 44.3 µM (inactive) in the assay on Malme-3M. Besides, the GI50 is 40.8 µM (inactive) in the assay on NCI-H23; 19.3 µM (inactive) in the assay on NCI-H522; 41.4 µM (inactive) with OVCAR-4; > 100 µM (inactive) with OVCAR-5; 37.9 µM (inactive) in the assay on SF-268; 43 µM (inactive) in the assay on SK-MEL-28. Besides, the GI50 in the assay on SK-OV-3 was > 100 µM (inactive); in the assay on U-251 it was 35.5 µM (inactive); in the assay with UO-31 it was 8.47 µM (inactive).
With `CC1(Br)CC2OC3(Br)C=CC(C)(O)C2(CC1=O)C3(C)C` (centres undefined), the GI50 in the assay with COLO 205 was > 100 µM (inactive); with HCT-116 it was > 92 µM (inactive); in the assay with HCT-15 it was > 100 µM; with IGROV-1 it was > 100 µM (inactive); in the assay with K562 it was 19.1 µM (inactive); in the assay on M14, > 100 µM (inactive). The GI50 with Malme-3M is > 100 µM (inactive); with NCI-H23 it was > 100 µM (inactive); in the assay with NCI-H522 it was 53.3 µM (inactive); in the assay with OVCAR-4, > 100 µM (inactive); in the assay with OVCAR-5, > 100 µM (inactive); with SF-268 it was > 100 µM (inactive). The GI50 with SK-MEL-28 is > 100 µM (inactive); in the assay on SK-OV-3 it was > 100 µM (inactive); with U-251 it was > 100 µM (inactive); in the assay with UO-31, > 83.9 µM (inactive).
With `C/C(CC(=O)Nc1cccc(Cl)c1C)=N\NC(=O)c1ccncc1`, the GI50 in the assay with COLO 205, in the assay on HCT-116, in the assay with IGROV-1, in the assay with K562, in the assay with M14 and with Malme-3M was > 100 µM (inactive) in each case. In addition, the GI50 in the assay on NCI-H23 is 58.9 µM (inactive); in the assay with NCI-H522, 21.4 µM (inactive); with OVCAR-5 it was > 100 µM (inactive); in the assay with RXF 393, 29.1 µM (inactive); in the assay with SF-268 it was > 100 µM (inactive); in the assay on SK-MEL-28 it was > 100 µM (inactive). Moreover, the GI50 with SK-OV-3, in the assay on U-251 and in the assay on UO-31 was > 100 µM (inactive) in each case.
For the compound `CCOC(=O)C1(C(=O)OCC)OC(=O)NC2=C1CCCC2`, the GI50 with COLO 205, in the assay on HCT-116, in the assay on IGROV-1, with K562, with Malme-3M and with NCI-H23 was > 100 µM (inactive) in each case. Moreover, the GI50 with NCI-H522, in the assay on OVCAR-5, in the assay on RXF 393, in the assay on SF-268, with SK-MEL-28 and in the assay on SK-OV-3 was > 100 µM (inactive) throughout. Also, the GI50 with U-251 and with UO-31 was > 100 µM (inactive) in each case.
`O=Cc1ccc2c(c1-c1c(C=O)ccc3c1OCO3)OCO2`: the GI50 in the assay on COLO 205 was > 100 µM (inactive); with HCT-116 it was > 100 µM (inactive); in the assay with HCT-15, > 100 µM; in the assay with IGROV-1, > 100 µM (inactive); with K562, > 100 µM (inactive); in the assay with M14, > 100 µM (inactive). Moreover, the GI50 with Malme-3M, in the assay on NCI-H23, in the assay on NCI-H522, with OVCAR-4, with OVCAR-5 and with SF-268 was > 100 µM (inactive) throughout. The GI50 in the assay on SK-MEL-28, with SK-OV-3, in the assay with U-251 and with UO-31 was > 100 µM (inactive) each time.
As to `COc1ccc2c(c1)CCc1c(-c3n[nH]c4c3CCc3cc(OC)ccc3-4)n[nH]c1-2`, the GI50 in the assay on COLO 205 was 50.2 µM (inactive); with HCT-116 it was 34.1 µM (inactive); in the assay with HCT-15, 35.1 µM; with IGROV-1, 48.6 µM (inactive); in the assay on K562, 8.89 µM (inactive); in the assay on M14, 25.9 µM (inactive). Further, the GI50 with Malme-3M was 37.9 µM (inactive); in the assay with NCI-H23 it was 79.4 µM (inactive); in the assay on NCI-H522 it was 20.2 µM (inactive); in the assay with OVCAR-5 it was > 100 µM (inactive); in the assay on SF-268 it was 37.1 µM (inactive); with SK-MEL-28, 33.8 µM (inactive). For the same compound, the GI50 is 6.25 µM (inactive) in the assay on SK-OV-3, 49.1 µM (inactive) in the assay on U-251 and 40.5 µM (inactive) in the assay with UO-31.
For `C#CCC(N)(CO)C(=O)O` (centres undefined), the GI50 with COLO 205 is > 100 µM (inactive); with HCT-116, > 100 µM (inactive); with HCT-15, > 100 µM; with IGROV-1, > 100 µM (inactive); in the assay on K562, > 100 µM (inactive); with M14, > 100 µM (inactive). For the same compound, the GI50 in the assay on Malme-3M, in the assay with NCI-H23, in the assay with NCI-H522, with OVCAR-4, with OVCAR-5 and in the assay with SF-268 was > 100 µM (inactive) each time. The GI50 in the assay with SK-MEL-28, in the assay on SK-OV-3, with U-251 and with UO-31 was > 100 µM (inactive) throughout.
For the compound `COCC(OC)C(CC=C(C#N)C#N)OC` (centres undefined), the GI50 with COLO 205 was > 100 µM (inactive); in the assay on HCT-116, > 100 µM (inactive); with HCT-15, > 100 µM; in the assay on IGROV-1 it was > 100 µM (inactive); with K562 it was > 100 µM (inactive); with M14, > 100 µM (inactive). In addition, the GI50 in the assay on Malme-3M, in the assay with NCI-H23, in the assay with NCI-H522, with OVCAR-4, with OVCAR-5 and in the assay with SF-268 was > 100 µM (inactive) throughout. The GI50 with SK-MEL-28, with SK-OV-3, in the assay with U-251 and in the assay with UO-31 was > 100 µM (inactive) each time.
In the case of `CCN(CC)CCNc1ccc2nnn3c4ccc(OC)cc4c(=O)c1c23`, the GI50 with COLO 205 is 6.5 µM (inactive); in the assay with HCT-116, 2.16 µM (inactive); with HCT-15, 6.17 µM; in the assay on IGROV-1, 7.55 µM (inactive); with K562 it was 3.78 µM (inactive); with M14 it was 10.5 µM (inactive). In addition, the GI50 is 10.4 µM (inactive) in the assay on Malme-3M; 8.49 µM (inactive) in the assay on NCI-H23; 6.7 µM (inactive) in the assay on NCI-H522; 6.46 µM (inactive) in the assay with OVCAR-4; 11 µM (inactive) with OVCAR-5; 7.33 µM (inactive) in the assay with SF-268. In addition, the GI50 in the assay on SK-MEL-28 was 15.6 µM (inactive); in the assay on SK-OV-3 it was 10.2 µM (inactive); in the assay with U-251 it was 10.4 µM (inactive); in the assay with UO-31 it was 10 µM (inactive).
